Test results taken from ChEMBL document CHEMBL3390840, “Expanding the horizon of chemotherapeutic targets: From MDM2 to MDMX (MDM4)” (Medchemcomm, 2011).

Key:
[1] = biological target: MDMX (Homo sapiens, UniProt O15151); experiment: Inhibition of human recombinant MDMX (1 to 185) after 30 mins by fluorescence polarization assay
[2] = biological target: T1, Protein Mdm4 (Homo sapiens, UniProt O15151); experiment: Inhibition of human full length GST-tagged MDMX expressed in Escherichia coli TG1 after 15 mins by ELISA
T1 sequence (O15151 whole entry): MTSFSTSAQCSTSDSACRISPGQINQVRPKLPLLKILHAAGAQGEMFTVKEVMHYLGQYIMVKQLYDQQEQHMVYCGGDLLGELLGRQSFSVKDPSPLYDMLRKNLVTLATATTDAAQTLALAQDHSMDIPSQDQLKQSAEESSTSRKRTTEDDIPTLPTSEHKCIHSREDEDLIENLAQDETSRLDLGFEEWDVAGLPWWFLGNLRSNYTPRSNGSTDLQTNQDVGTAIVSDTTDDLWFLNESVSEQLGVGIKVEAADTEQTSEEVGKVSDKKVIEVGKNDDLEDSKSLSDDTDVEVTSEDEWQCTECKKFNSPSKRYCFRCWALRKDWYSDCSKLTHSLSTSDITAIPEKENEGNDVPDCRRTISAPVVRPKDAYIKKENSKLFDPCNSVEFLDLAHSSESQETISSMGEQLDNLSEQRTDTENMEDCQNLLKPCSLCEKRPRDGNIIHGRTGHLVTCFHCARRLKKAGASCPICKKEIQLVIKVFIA

[3] = biological target: E3 ubiquitin-protein ligase Mdm2 (Homo sapiens, UniProt Q00987); experiment: Inhibition of human full length GST-tagged MDM2 expressed in Escherichia coli TG1 after 15 mins by ELISA
E3 ubiquitin-protein ligase Mdm2, sequence (Q00987 whole entry): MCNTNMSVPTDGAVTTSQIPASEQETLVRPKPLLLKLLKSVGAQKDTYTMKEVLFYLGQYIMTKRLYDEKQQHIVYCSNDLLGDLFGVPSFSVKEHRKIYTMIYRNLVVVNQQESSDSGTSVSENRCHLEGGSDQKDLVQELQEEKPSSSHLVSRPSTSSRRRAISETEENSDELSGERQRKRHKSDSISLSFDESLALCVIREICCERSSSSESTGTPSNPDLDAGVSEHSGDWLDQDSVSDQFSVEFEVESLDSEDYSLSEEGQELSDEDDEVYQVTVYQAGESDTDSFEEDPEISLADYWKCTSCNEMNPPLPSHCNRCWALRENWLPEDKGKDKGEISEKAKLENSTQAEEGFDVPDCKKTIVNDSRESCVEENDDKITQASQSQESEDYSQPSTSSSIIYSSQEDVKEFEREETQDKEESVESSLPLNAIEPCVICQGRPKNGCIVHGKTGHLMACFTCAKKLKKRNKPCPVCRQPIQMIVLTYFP

Row | EC50 [1] | IC50 [2] | IC50 [3] | Molecule
1 | 840 nM |  |  | CCOc1cc(/C=C2\C(=O)N(c3ccccc3)N=C2C)cc(Cl)c1OCC(=O)OC
2 |  | 1650 nM | 150 nM | H-MPRFMDYWEGLN-OH
